Data reported in ChEMBL document CHEMBL3853318, “Structure-Based Optimization of Potent, Selective, and Orally Bioavailable CDK8 Inhibitors Discovered by High-Throughput Screening” (J Med Chem, 2016).

Columns and labels:
CDK8/Cyclin C = CDK8/Cyclin C (Homo sapiens, UniProt P49336); experiment: Inhibition of Alexa647 tracer binding to full length recombinant human His-tagged CDK8/cyclin C expressed in Baculovirus expression system preincubated for 20 mins followed by tracer addition and incubated in dark for 60 mins by FRET-based Lanthascreen assay
CDK8/Cyclin C, sequence (P49336 whole entry): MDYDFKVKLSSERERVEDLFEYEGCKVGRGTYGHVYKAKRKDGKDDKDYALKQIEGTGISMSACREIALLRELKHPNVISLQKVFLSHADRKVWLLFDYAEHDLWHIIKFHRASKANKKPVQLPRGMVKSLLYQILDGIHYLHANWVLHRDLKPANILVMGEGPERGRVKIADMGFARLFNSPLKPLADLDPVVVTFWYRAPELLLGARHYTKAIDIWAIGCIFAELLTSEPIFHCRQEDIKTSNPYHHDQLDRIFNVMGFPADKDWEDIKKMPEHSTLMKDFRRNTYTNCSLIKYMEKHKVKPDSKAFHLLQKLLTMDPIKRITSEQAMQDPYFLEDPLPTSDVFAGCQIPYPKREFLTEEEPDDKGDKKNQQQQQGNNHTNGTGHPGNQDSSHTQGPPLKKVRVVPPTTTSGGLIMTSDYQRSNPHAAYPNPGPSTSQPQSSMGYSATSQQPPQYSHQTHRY
CDK8/Cyclin C, sequence (P24863 whole entry, further chain): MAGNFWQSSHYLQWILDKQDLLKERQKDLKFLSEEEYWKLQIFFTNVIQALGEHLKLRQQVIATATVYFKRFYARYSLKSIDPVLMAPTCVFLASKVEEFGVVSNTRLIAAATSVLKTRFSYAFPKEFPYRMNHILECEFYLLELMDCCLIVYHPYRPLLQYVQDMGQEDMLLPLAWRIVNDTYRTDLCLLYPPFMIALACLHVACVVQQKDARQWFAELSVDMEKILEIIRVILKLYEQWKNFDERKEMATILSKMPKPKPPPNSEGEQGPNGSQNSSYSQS

[1] = Intrinsic clearance in human liver microsomes at 1 uM preincubated for 5 mins followed by NADPH addition measured after 5 to 30 mins by LC-MS/MS analysis; assay type: ADME; settings: read-out: CLH
[2] = Intrinsic clearance in rat liver microsomes at 1 uM preincubated for 5 mins followed by NADPH addition measured after 5 to 30 mins by LC-MS/MS analysis; assay type: ADME; settings: read-out: CLH
[3] = biological target: Cyclin-dependent kinase 8 (Homo sapiens, UniProt P49336); experiment: Inhibition of CDK8 in human 7dF3 cells preincubated for 2 hrs followed by beta-oestradiol addition measured after 24 hrs by luciferase reporter gene assay; assay type: cell-based
Cyclin-dependent kinase 8, sequence (P49336 whole entry): as the sequence (P49336 whole entry) above

[4] = Intrinsic clearance in mouse liver microsomes at 1 uM preincubated for 5 mins followed by NADPH addition measured after 5 to 30 mins by LC-MS/MS analysis; assay type: ADME; settings: read-out: CLH
7dF3 = experiment: Ratio of IC50 for CDK8 in human 7dF3 cells to IC50 for Alexa647 tracer binding to full length recombinant human His-tagged CDK8/cyclin C; assay type: cell-based
[5] = biological target: T1, Tyrosine-protein kinase JAK1 (Homo sapiens, UniProt P23458); experiment: Inhibition of JAK1 (unknown origin) at 1 uM relative to control
T1 sequence (P23458 whole entry): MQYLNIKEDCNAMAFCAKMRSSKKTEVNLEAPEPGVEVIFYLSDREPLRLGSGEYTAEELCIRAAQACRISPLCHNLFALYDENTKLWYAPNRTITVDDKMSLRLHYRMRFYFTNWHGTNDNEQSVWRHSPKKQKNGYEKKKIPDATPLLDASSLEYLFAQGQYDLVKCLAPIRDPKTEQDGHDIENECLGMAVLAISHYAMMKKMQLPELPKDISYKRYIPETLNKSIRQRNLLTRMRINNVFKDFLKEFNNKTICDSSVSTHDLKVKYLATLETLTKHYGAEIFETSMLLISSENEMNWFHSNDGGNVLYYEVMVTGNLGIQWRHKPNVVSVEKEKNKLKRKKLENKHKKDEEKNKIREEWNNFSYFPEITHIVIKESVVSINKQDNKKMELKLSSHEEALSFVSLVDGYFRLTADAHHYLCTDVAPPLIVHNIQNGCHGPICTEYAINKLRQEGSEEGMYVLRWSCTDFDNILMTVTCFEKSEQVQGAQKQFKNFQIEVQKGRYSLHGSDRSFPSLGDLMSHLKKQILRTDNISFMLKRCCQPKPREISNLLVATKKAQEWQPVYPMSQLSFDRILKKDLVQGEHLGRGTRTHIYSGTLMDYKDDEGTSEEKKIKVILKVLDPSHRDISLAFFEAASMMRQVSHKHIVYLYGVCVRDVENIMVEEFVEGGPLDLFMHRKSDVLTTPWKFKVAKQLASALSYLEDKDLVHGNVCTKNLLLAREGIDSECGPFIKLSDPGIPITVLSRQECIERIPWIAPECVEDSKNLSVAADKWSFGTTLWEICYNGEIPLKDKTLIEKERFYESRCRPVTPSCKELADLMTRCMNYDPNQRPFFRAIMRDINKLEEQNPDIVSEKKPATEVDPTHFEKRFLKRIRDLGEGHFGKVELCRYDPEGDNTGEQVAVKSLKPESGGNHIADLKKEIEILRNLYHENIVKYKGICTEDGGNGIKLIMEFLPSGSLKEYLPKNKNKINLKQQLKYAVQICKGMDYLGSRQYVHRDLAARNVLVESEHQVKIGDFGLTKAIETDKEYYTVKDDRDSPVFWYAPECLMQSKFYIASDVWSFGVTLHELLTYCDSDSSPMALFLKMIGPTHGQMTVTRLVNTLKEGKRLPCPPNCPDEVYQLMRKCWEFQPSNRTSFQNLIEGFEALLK

[6] = biological target: T2, Non-receptor tyrosine-protein kinase TYK2 (Homo sapiens, UniProt P29597); experiment: Inhibition of TYK2 (unknown origin) at 1 uM relative to control
T2 sequence (P29597 whole entry): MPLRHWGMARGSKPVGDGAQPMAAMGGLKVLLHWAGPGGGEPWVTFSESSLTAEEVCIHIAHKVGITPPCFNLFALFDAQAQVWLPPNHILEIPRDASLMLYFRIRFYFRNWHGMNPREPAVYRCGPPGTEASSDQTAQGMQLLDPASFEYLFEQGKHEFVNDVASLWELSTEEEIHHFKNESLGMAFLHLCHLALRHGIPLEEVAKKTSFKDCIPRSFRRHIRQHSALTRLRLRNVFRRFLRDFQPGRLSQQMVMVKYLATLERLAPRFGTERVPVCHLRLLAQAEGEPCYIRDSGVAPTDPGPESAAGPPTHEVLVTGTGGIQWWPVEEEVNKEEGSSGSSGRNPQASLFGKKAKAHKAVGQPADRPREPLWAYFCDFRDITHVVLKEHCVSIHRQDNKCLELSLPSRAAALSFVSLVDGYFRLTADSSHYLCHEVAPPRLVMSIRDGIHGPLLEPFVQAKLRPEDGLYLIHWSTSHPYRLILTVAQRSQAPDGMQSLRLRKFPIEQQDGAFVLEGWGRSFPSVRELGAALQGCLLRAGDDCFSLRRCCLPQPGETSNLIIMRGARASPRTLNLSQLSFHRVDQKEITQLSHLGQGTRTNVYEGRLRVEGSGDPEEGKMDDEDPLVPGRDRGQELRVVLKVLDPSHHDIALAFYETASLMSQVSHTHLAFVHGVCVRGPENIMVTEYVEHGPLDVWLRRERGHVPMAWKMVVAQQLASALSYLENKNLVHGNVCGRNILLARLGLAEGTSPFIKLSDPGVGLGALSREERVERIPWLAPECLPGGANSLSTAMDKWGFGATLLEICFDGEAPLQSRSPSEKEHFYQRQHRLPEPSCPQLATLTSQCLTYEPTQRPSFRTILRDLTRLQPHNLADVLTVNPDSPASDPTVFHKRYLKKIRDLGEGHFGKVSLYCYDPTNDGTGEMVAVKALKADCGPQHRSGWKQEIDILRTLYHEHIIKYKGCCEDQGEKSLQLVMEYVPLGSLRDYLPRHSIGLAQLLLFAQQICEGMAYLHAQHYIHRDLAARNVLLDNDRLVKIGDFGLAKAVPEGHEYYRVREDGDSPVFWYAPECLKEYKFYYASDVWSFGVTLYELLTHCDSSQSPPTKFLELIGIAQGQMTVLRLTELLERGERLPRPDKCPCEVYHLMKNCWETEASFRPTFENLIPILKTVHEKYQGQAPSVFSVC

[7] = biological target: T3, Rho-associated protein kinase 2 (Homo sapiens, UniProt O75116); experiment: Inhibition of ROCK-2 (unknown origin) at 1 uM relative to control
Target sequence in this assay (O75116 whole entry, looked up): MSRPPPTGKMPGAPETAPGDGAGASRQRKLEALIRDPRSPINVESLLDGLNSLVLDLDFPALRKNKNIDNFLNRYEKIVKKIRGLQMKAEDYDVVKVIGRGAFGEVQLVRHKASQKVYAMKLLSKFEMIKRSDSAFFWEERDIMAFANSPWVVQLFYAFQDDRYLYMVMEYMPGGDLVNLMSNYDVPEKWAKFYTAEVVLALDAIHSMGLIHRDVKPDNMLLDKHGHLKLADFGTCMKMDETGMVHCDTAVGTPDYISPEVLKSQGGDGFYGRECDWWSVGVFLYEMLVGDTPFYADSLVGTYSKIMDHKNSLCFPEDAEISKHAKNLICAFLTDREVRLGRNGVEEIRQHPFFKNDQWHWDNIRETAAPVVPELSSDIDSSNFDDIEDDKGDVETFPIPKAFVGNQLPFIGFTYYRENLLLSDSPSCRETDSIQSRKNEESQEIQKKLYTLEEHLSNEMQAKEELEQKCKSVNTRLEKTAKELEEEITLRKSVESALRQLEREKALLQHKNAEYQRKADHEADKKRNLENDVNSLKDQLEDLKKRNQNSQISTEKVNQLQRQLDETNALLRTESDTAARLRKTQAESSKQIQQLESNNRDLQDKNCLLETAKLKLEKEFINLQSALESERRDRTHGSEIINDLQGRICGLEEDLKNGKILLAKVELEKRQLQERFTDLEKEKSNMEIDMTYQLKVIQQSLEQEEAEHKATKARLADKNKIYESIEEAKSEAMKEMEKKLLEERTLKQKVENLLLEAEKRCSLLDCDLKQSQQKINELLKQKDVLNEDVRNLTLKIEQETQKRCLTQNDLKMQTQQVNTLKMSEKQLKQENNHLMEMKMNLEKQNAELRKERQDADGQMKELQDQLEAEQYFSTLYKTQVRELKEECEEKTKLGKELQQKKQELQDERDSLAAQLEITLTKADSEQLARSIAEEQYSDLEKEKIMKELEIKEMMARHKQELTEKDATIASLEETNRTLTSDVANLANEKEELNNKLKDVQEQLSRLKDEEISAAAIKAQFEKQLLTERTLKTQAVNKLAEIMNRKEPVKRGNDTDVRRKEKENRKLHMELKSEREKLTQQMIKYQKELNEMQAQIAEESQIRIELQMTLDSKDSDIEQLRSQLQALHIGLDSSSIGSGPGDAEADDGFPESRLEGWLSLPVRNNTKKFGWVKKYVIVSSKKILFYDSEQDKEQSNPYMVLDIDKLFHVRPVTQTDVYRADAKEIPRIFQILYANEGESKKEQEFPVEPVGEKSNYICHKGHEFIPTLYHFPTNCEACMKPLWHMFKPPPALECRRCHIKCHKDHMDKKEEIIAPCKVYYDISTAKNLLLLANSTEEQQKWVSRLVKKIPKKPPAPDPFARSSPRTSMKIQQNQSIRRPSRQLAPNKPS

[8] = biological target: T4, Tyrosine-protein kinase JAK3 (Homo sapiens) (UniProt P52333); experiment: Inhibition of JAK3 (unknown origin) at 1 uM relative to control
T4 sequence (whole entry): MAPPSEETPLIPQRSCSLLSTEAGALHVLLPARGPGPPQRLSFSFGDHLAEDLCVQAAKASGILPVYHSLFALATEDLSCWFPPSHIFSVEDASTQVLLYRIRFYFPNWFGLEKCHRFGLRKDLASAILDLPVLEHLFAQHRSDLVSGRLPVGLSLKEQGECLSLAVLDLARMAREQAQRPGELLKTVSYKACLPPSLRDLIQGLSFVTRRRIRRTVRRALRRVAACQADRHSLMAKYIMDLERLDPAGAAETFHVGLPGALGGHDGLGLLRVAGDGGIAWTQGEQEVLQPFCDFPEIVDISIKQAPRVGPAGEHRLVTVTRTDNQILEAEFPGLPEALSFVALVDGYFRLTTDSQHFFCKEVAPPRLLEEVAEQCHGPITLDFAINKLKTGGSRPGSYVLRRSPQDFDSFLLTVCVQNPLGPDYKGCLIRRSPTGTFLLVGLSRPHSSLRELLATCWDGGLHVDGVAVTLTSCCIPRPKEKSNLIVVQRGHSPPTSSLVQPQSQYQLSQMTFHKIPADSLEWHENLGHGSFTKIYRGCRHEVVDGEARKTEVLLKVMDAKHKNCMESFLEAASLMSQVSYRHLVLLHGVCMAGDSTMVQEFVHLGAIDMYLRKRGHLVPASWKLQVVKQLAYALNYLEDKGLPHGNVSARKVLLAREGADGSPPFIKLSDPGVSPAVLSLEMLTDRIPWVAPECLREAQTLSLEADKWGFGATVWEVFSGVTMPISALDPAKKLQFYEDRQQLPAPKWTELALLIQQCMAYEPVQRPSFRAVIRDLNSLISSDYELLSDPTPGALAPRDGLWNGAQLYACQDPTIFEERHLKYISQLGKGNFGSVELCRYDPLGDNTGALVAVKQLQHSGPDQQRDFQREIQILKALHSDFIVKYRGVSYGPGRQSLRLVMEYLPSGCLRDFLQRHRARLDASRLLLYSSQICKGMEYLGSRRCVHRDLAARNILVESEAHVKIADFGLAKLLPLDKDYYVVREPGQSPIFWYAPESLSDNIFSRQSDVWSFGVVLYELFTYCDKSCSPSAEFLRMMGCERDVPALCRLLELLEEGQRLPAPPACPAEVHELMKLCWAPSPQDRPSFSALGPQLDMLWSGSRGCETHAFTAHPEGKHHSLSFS

[9] = biological target: T5, Tyrosine-protein kinase JAK2 (Homo sapiens, UniProt O60674); experiment: Inhibition of JAK2 (unknown origin) at 1 uM relative to control
[10] = Efflux ratio of permeability in human Caco2 cells at 1 uM after 2 hrs by Transwell assay; assay type: ADME, cell-based; settings: Caco-2
[11] = Apparent permeability from apical to basolateral side in human Caco2 cells at 1 uM after 2 hrs by Transwell assay; assay type: ADME, cell-based; settings: Caco-2
[12] = biological target: T3, Rho-associated protein kinase 2; experiment: Inhibition of ROCK-2 (unknown origin)
Target sequence in this assay (O75116 whole entry): as the sequence (O75116 whole entry, looked up) above

[13] = biological target: T1, Tyrosine-protein kinase JAK1; experiment: Inhibition of JAK1 (unknown origin)
[14] = biological target: T5, Tyrosine-protein kinase JAK2; experiment: Inhibition of JAK2 (unknown origin)
[15] = biological target: T6, Tyrosine-protein kinase JAK3 (Homo sapiens, UniProt P52333); experiment: Inhibition of JAK3 (unknown origin)
T6 sequence (P52333 whole entry): T4 sequence (whole entry)

[16] = biological target: T2, Non-receptor tyrosine-protein kinase TYK2; experiment: Inhibition of TYK2 (unknown origin)

IC50 (CDK8/Cyclin C) [nM]	microsomal CLint at 1 µM [1] [µL/min/mg]	microsomal CLint at 1 µM [2] [µL/min/mg]	IC50 [3] [nM]	microsomal CLint at 1 µM [4] [µL/min/mg]	inhibition [5] [%]	inhibition [6] [%]	inhibition [7] [%]	inhibition [8] [%]	inhibition [9] [%]	efflux ratio at 2 h, 1 µM [10]	Papp A→B at 2 h, 1 µM [11] [×10⁻⁶ cm/s]	IC50 [12] [nM]	IC50 [13] [nM]	IC50 [14] [nM]	IC50 [15] [nM]	IC50 [16] [nM]	SMILES	Ratio IC50 (7dF3)
3.1	< 10	< 10	19	14	88	76	65	76	88	–	–	–	–	–	–	–	Nc1n[nH]c2ccc(C(=O)N3CCC[C@H]3c3ccc(Br)cc3)cc12	–
1.7	908	62	2	113	–	–	–	–	–	–	–	–	–	–	–	–	Cc1n[nH]c2ccc(C(=O)N3CC[C@H]3c3ccc(Cl)cc3)cc12	–
4.9	23	10	28	10	86	70	42	79	84	2.2	33.7	1330	90	286	219	279	Nc1n[nH]c2ccc(C(=O)N3CCC[C@H]3c3ccc(Cl)cc3)cc12	–
32	< 10	< 10	120	< 10	72	62	27	58	59	–	–	–	–	–	–	–	Nc1n[nH]c2ccc(C(=O)N3CCC[C@H]3c3ccc(F)cc3)cc12	–
3990	< 10	19	> 10000	18	–	–	–	–	–	–	–	–	–	–	–	–	Cc1nnc2ccc(C(=O)N3CCC[C@H]3c3ccc(Cl)cc3)cn12	–
32	354	94	100	86	–	–	–	–	–	–	–	–	–	–	–	–	O=C(c1ccc2[nH]ncc2c1)N1CCC[C@H]1c1ccc(Cl)cc1	–
5.4	18	28	12	31	34	32	17	37	34	–	–	–	–	–	–	–	CNc1n[nH]c2ccc(C(=O)N3CCC[C@H]3c3ccc(Cl)cc3)cc12	–
9	390	108	90	63	–	–	–	–	–	–	–	–	–	–	–	–	Cc1ncc2ccc(C(=O)N3CCC[C@H]3c3ccc(Cl)cc3)cn12	–
1.3	100	69	2.8	29	–	–	–	–	–	–	–	–	–	–	–	–	Cc1n[nH]c2ccc(C(=O)N3CCC[C@H]3c3ccc(Cl)cc3)nc12	–
1.4	525	79	0.6	244	–	–	–	–	–	–	–	–	–	–	–	–	Cc1n[nH]c2ccc(C(=O)N3CCC[C@H]3c3ccc(Cl)cc3)cc12	–

Second part, the molecule before the results:

SMILES	IC50 (CDK8/Cyclin C) [nM]	microsomal CLint at 1 µM [1] [µL/min/mg]	microsomal CLint at 1 µM [2] [µL/min/mg]	IC50 [3] [nM]	microsomal CLint at 1 µM [4] [µL/min/mg]	inhibition [5] [%]	inhibition [6] [%]	inhibition [7] [%]	inhibition [8] [%]	inhibition [9] [%]	efflux ratio at 2 h, 1 µM [10]	Papp A→B at 2 h, 1 µM [11] [×10⁻⁶ cm/s]	IC50 [12] [nM]	IC50 [13] [nM]	IC50 [14] [nM]	IC50 [15] [nM]	IC50 [16] [nM]	Ratio IC50 (7dF3)
Cc1n[nH]c2ccc(C(=O)N3CCN(C)CC3c3ccc(Cl)cc3)cc12 (centres undefined)	15	135	40	230	63	–	–	–	–	–	–	–	–	–	–	–	–	–
CCOc1ccccc1CNC(=O)c1nn2c(C)ncc2s1	129	> 1000	435	1650	119	–	–	–	–	–	–	–	–	–	–	–	–	3
Cc1n[nH]c2cnc(C(=O)N3CCC[C@H]3c3ccc(Cl)cc3)cc12	11	206	70	125	61	–	–	–	–	–	–	–	–	–	–	–	–	–
Cc1ncc2sc(C(=O)N3CCCC3c3ccc(Cl)cc3)nn12 (centres undefined)	17	52	719	100	388	–	–	–	–	–	–	–	–	–	–	–	–	–
Nc1n[nH]c2ccc(C(=O)N3CC[C@@H](c4ccc(Cl)cc4)C3)cc12	24	< 10	26	150	19	24	23	20	15	–	–	–	–	–	–	–	–	–
Cc1ncc2sc(C(=O)N3CCCC3c3ccc(F)cc3)nn12 (centres undefined)	60	38	280	290	129	–	–	–	–	–	–	–	–	–	–	–	–	3
Nc1n[nH]c2ccc(C(=O)N3CCCC[C@H]3c3ccc(F)cc3)cc12	45	< 10	15	800	28	21	17	22	–	-2	–	–	–	–	–	–	–	–
Cc1ncc2sc(C(=O)N3CCC[C@@H]3c3ccc(Cl)cc3)nn12	110	60	449	1600	514	–	–	–	–	–	–	–	–	–	–	–	–	–
Nc1n[nH]c2ccc(C(=O)N3CC[C@H]3c3ccc(F)cc3)cc12	49	10	< 10	435	10	63	45	12	21	24	–	–	–	–	–	–	–	–
Cc1ncc2sc(C(=O)N3CCC[C@H]3c3ccc(Cl)cc3)nn12	3.8	49	655	70	447	–	–	–	–	–	–	–	–	–	–	–	–	–
CCOc1ccccc1C(C)NC(=O)c1nn2c(C)ncc2s1 (centres undefined)	781	61	38	2450	> 1000	–	–	–	–	–	–	–	–	–	–	–	–	3
Cc1n[nH]c2ccc(C(=O)N3CCOCC3c3ccc(Cl)cc3)cc12 (centres undefined)	8.5	135	44	115	29	–	–	–	–	–	–	–	–	–	–	–	–	–
Cc1ncc2sc(C(=O)N3CCCC3c3ccccc3)nn12 (centres undefined)	77	56	446	415	145	–	–	–	–	–	–	–	–	–	–	–	–	3
